Reference: a melting point compilation (Tetko et al.; mined from patent text by program, amines drawn as free bases though some values may be those of a salt)

In the case of `CCn1c(CO)nc(C(C)C)c1Sc1cc(F)cc(F)c1`, the melting point is reported as 102 to 104 °C. In the case of `CC1(C)CC(N2CCN(c3ccccc3)C2=O)c2cc(C#N)ccc2O1` (stereo unspecified), the melting point is reported as 166 to 168 °C. Molecule `CCOC(=O)c1cccc(Sc2nc(C)c(CC(=O)O)s2)n1` has a melting point of 140 to 142 °C. With `CC(C)(C)OC(=O)NC(CSCc1ccc(-c2ccc(-c3ccc4c(c3)OCO4)cc2)cc1)C(=O)O` (stereo unspecified) the melting point was 178 to 180 °C. `O=c1c(Cl)cc2nc3ccc(F)cc3sc-2c1Cl` gave a melting point of 256 to 258 °C. With `Cc1ccc(S(=O)(=O)Nc2ccc(-c3ccccc3)cn2)cc1` the melting point was 187 to 189 °C. For `C[C@H]1CCCN(C(=O)[C@@H]2Cc3cc(-c4ccccc4)ccc3N2c2ccc(=O)n(C)n2)C1`, the melting point was 204 to 206 °C. Work on `CC(C)N1C(Oc2ccccc2[N+](=O)[O-])=NS(=O)(=O)N=C1Oc1ccccc1[N+](=O)[O-]` yielded a melting point of 259 to 263 °C. With `CC(C)c1nn(-c2ccc(C(F)(F)F)cn2)cc1CCCCOc1nn(-c2ccccc2)cc1CC(=O)O` the melting point was 119 to 120 °C. With `COc1ccc(C(=O)N2CC[C@@H](O)C2=O)cc1` the melting point was 121 to 122 °C. `NCc1ccc2c(c1)C(=O)c1ccccc1C2=O` showed a melting point of 170 to 178 °C. Work on `Cn1c(=O)c(-c2c(Cl)cccc2Cl)cc2cnc(N)nc21` yielded a melting point of 235 to 237 °C. For `COc1cc2ccc(-c3ccc(C(=O)O)cc3)cc2cc1C(C)(C)C`, the melting point was 283 °C. For `COc1cn(-c2ccc(N3CCOCC3)c(F)c2F)nc(-c2ccnn2-c2ccccc2)c1=O`, the melting point was 182 to 183 °C. For `CCOC(=O)c1cn(C2CC2)c2c(CO)c(N3CCN(C)CC3)c(F)cc2c1=O`, the melting point was 216 to 218 °C. For `COC=C(C#CCON=C(C)c1cccc(C(F)(F)F)c1)C(=O)OC`, the melting point was 57 to 58 °C. In the case of `CCN(CC)S(=O)(=O)c1cc(Cl)cc(O)c1O`, the melting point is reported as 62 to 64 °C. `CCSc1nc2c(C(=S)OC)sc(C)c2[nH]1` gave a melting point of 170 to 172 °C. With `Cn1ncnc1COc1nn2c(-c3ccccc3F)nnc2cc1-c1cccc(F)c1` the melting point was 204 to 206 °C. `N#Cc1ccc(-c2ccc(-c3nc4cc(C#N)ccc4[nH]3)cc2)c(OCc2ccccc2)c1` showed a melting point of 205 to 208 °C. `CCCOc1cccc(OCCC)c1C(=O)Nc1cc(C(C)(C)C)no1` gave a melting point of 85 to 87 °C. In the case of `N#Cc1cn(-c2ccccc2)nc1-c1ccc([N+](=O)[O-])o1`, the melting point is reported as 190 to 192 °C. For `COc1c(F)cc(NN)cc1F`, the melting point was 60.5 to 62.3 °C. In the case of `Cc1cc(Oc2ccc(C(F)(F)F)cc2Cl)cc(Cl)n1`, the melting point is reported as 75 °C. Work on `COc1cc(O)c(Br)c2cc(-c3ccc(O)cc3)oc12` yielded a melting point of 170 °C. Molecule `CCn1cc(OC(=O)c2ccccc2)c(=O)c2ccccc21` has a melting point of 190 to 192 °C. Molecule `CCOC(=O)C1Cc2cc(-c3ccccc3)ccc2O1` (stereo unspecified) has a melting point of 112 °C. Work on `CCCCCCCCCCCCOc1ccc(C=C(C(=O)OCC(O)CO)C(=O)OCC(O)CO)cc1` (stereo unspecified) yielded a melting point of 80 to 85 °C. `CCOC(=O)c1ncn2c1c(C)nc1ccccc12` showed a melting point of 192 to 193 °C. For `COc1cc(OC)cc(N2CCN(C(=O)N(c3nc4ccccc4nc3OC)C(C)C)CC2)c1`, the melting point was 110 to 112 °C. For `CCCCCCCOc1ccc(-c2ccc(OCc3ccccc3)c(F)c2)cc1F`, the melting point was 98.7 to 100 °C. With `CC(C)N1C(=O)NC2(CCN(C(=O)OC(C)(C)C)CC2)C1=O` the melting point was 206 to 208 °C. In the case of `CCc1nc2cc(Cl)c(F)cc2c(=O)n1CCc1ccccc1`, the melting point is reported as 150 to 152 °C. `CC[C@H](COC)n1cc(Br)nc(N2CCc3cc(OC)c(F)c(Cl)c32)c1=O` gave a melting point of 150 to 152 °C. With `CS(=O)(=O)OCCC1(c2ccccc2)C=CCC=C1` the melting point was 64 to 65 °C. Work on `CC1CC(CN2CCNC2=N[N+](=O)[O-])CO1` (stereo unspecified) yielded a melting point of 109 to 110 °C. For `O=C1CCC(N2Cc3cc(CNC(=O)c4ccc(Cl)c(Cl)c4)ccc3C2=O)C(=O)N1` (stereo unspecified), the melting point was 260 to 262 °C. In the case of `CN=NNc1ccc(C)cc1`, the melting point is reported as 77 to 80 °C. In the case of `COc1ccc(C(=O)C=CC(=O)O)c(OC)c1OC`, the melting point is reported as 100 °C. `COc1ccc(SSC)cc1` showed a melting point of 98 to 100 °C. `Cc1ccc(COc2ncc(F)c(NC(=O)c3ccccc3)n2)cc1` showed a melting point of 93 to 95 °C. For `Cc1ccc2c(c1)cc(CCCC(=O)O)n2S(=O)(=O)c1ccc2ncsc2c1`, the melting point was 128 °C. For `CC1=NC(NC(=O)Nc2cccc(C)c2)C(=O)N(CC(=O)N(CC(C)C)CC(C)C)c2c(C)cccc21` (stereo unspecified), the melting point was 227 to 228 °C. Molecule `c1ccc(COc2ccc(CNn3cncn3)cc2)cc1` has a melting point of 123 to 124 °C. With `Cc1ccc(S(=O)(=O)Nc2cc(C(=O)O)c3c(c2)C(C(=O)O)CCN3)cc1` (stereo unspecified) the melting point was 221 to 223 °C. With `CC(C)c1cc2c(cc1C(SCC(=O)O)c1ccccc1)OCO2` (stereo unspecified) the melting point was 114 °C. Molecule `CSCCCCn1c(C)nc2c(N)nc3ccccc3c21` has a melting point of 190 to 193 °C. Molecule `CC(CCl)n1c(C(F)(F)F)nc2cc(F)c(-n3c(=O)cc(C(F)(F)F)n(C)c3=O)cc21` (stereo unspecified) has a melting point of 93 to 95 °C. `C#CCOc1cc(C(=O)O)cc(Cl)c1OCC#C` showed a melting point of 158 to 159 °C. Molecule `CSc1ncc2cc(Cc3ccccc3)oc2n1` has a melting point of 69 to 72.2 °C. For `COc1cc2c(c(OC(C)=O)c1)C1CCC3(C)C(=O)C(Cl)CC3C1CC2` (stereo unspecified), the melting point was 164 to 166 °C. `CCSc1ccc(CC(=O)NC(NC(=NC#N)Nc2cccc3ncccc23)C(C)(C)C)cc1` (stereo unspecified) gave a melting point of 189 to 190 °C. `CCNC(=O)c1ccc2c(c1)Nc1ccccc1S2` gave a melting point of 150 to 151 °C. In the case of `COc1c(CN2C(=O)c3ccccc3C2=O)c2c(c3c1OC(C)(C)C3)C(c1ccccc1)=NC(C)(C)C2`, the melting point is reported as 193 to 195 °C. Work on `COc1ccc(CC(=O)c2ccc(F)cc2)cc1` yielded a melting point of 107 to 109 °C. Work on `CCCCc1cn(Cc2ccc(C(=O)O)cc2)c2ccccc2c1=O` yielded a melting point of 224 °C. For `COC(=O)CCCc1oc(Cl)nc1-c1ccc(Cl)cc1`, the melting point was 73 to 74 °C. With `O=C1C=CC(=O)N1CCCCCCN1C(=O)C=CC1=O` the melting point was 136 to 139 °C. Molecule `CC(C)(C)c1cc(SCSc2cc(C(C)(C)C)c(O)c(C(C)(C)C)c2)cc(C(C)(C)C)c1O` has a melting point of 94 to 95 °C. `COc1ccc(/C=C/c2ccncc2)cc1OC1CCCC1` gave a melting point of 108 °C. `COc1cc(Cc2cnc(NC(=O)Cc3ccccc3)nc2N)cc(OC)c1OC` gave a melting point of 181 to 183 °C. For `CC(=O)Nc1ccc(/C=C/C(=O)NCC(=O)Nc2ccc(Cl)c(COc3cccc4ccc(C)nc34)c2Cl)cn1`, the melting point was 272 to 282 °C. Molecule `CC(CC(F)(F)C(F)(F)C(F)(F)C(F)(F)CC(C)C(=O)O)C(=O)O` (stereo unspecified) has a melting point of 166 to 168 °C. In the case of `CCOC(=O)c1cn(C)c2nn(C)cc2c1=O`, the melting point is reported as 235 to 240 °C. Molecule `Nc1cccc2c1CC=CC2` has a melting point of 37 to 39 °C. In the case of `Cc1cccc(P(c2cccs2)c2cccs2)c1-c1c(C)cccc1P(c1cccs1)c1cccs1`, the melting point is reported as 177 to 178 °C. For `COc1ccc(CNc2nc(CCCC(=O)O)nc3oc4c(c23)CCCC4)cc1Cl`, the melting point was 205 °C. `O=C(O)CN1C(=O)C(NC(=O)C(Cc2ccccc2)SC(=O)c2ccccc2)CCc2ccccc21` (stereo unspecified) showed a melting point of 170 to 171 °C. For `Cn1c2ccccc2c2cc(CN3CCOCC3)sc21`, the melting point was 102 to 106 °C. `CC(=O)OC1CSC(Oc2cncc(-c3ccncc3C)c2)C(OC(C)=O)C1OC(C)=O` (stereo unspecified) showed a melting point of 153 to 174 °C. Molecule `COc1cc(COc2nn(C)cc2CO)ccc1OCc1nc(-c2ccccc2)oc1C` has a melting point of 108 to 109 °C. With `COc1cc2c(cc1F)CCN(Nc1ccncc1)C2` the melting point was 216 to 218 °C. `CCOC(=O)CNC(=O)Nc1ccc(C(=N)NC(=O)OC(C)(C)C)cc1` showed a melting point of 107 to 110 °C. Molecule `Cc1ccc(OCCO)cn1` has a melting point of 49 to 51 °C. Molecule `OCCSP(=S)(C1CCCCC1)C1CCCCC1` has a melting point of 82 to 84 °C. `COc1ccc2c(=O)c3oc4c5ccccc5ccc4c3oc2c1` showed a melting point of 282 to 284 °C. In the case of `CCCCCNC(=O)[C@@H]1CCCN1C(=O)[C@H](C)NC(=O)OCc1ccccc1`, the melting point is reported as 102 to 104 °C. `CCN1C(=O)C(=CC=C2C=C(c3ccccc3)C=C3N2c2ccccc2C3(C)C)SC1=S` gave a melting point of 270 to 272 °C. Work on `Cn1nc(C(F)(F)F)c(CS(=O)(=O)C2=NOC(C)(C)C2)c1OC(F)F` yielded a melting point of 129 to 130 °C. In the case of `CC(C)C[C@H](NC(=O)[C@@H]1CCC(=O)O1)C(=O)OC(C)(C)C`, the melting point is reported as 79 to 81 °C. Work on `ClCCCOc1ccc(OCCCCl)c(Cl)c1` yielded a melting point of 135 °C. For `Nc1nc2ccc(CCN3CCC(C(=O)c4ccccc4)CC3)cc2s1`, the melting point was 186 to 188 °C. Molecule `COc1ccc(OC)c(COc2ccc(NC=O)c(C(N)=O)c2)c1` has a melting point of 135 to 138 °C. With `CCN1c2ncccc2C(=O)Nc2c(C(F)(F)F)cc(C)nc21` the melting point was 150 to 151 °C. Molecule `COc1ccc(-c2nc(S(=O)(=O)c3cccs3)[nH]c2-c2ccc(OC)cc2)cc1` has a melting point of 179 °C. With `FC(F)(F)c1ccc2c(c1)NC(=S)c1ccccc1S2` the melting point was 232 to 233 °C. `Cc1ccccc1-c1nc(N)ncc1-c1ccc(=O)[nH]n1` showed a melting point of 313 °C. `O=C(OCc1ccccc1)N1CCC(c2nc(CO)c(-c3ccc(Cl)cc3)o2)CC1` gave a melting point of 97 to 99 °C. For `COC(=O)COc1cc2ccccc2c2c1c(C(=O)C(N)=O)c(C)n2Cc1cccc(-c2ccc(F)cc2)c1`, the melting point was 157 to 159 °C. In the case of `COc1cc2nc(Cn3cnc4c(N)ncnc43)n(-c3ccccc3Cl)c(=O)c2cc1OC`, the melting point is reported as 282 to 283 °C. With `C=C1C[C@@H]2[C@H](CC[C@]3(C)C(=O)CC[C@@H]23)[C@@]2(C)CCC(=O)C(OC(C)=O)=C12` the melting point was 183 to 185 °C. Work on `CC(O)c1cccc(NC(=O)NCC(=O)N(c2ccccc2)C(C)C(=O)N2CCCc3ccccc32)c1` (mixture of isomers) yielded a melting point of 170 °C. `CC(=O)Oc1ccc2c(c1)OC(C)(c1ccccc1)O2` (stereo unspecified) showed a melting point of 87 to 87.5 °C. Work on `COP(=O)(Cc1nc(C)c(C)o1)OC` yielded a melting point of 54 to 57 °C. `N#CCc1cccc2cnccc12` showed a melting point of 130 to 131 °C. In the case of `CC(=O)Nc1ccc(Nc2nnc(Cc3ccncc3)c3ccccc23)cc1`, the melting point is reported as greater than 270 °C. For `COc1ccc(C(N)=O)c(OC)c1-c1ccc(C[C@H](NC(=O)c2c(Cl)cc(NC(N)=O)cc2Cl)C(=O)O)cc1`, the melting point was 217 to 219 °C. `Nc1coc2ccc(Cl)cc2c1=O` gave a melting point of 184 to 186 °C. Molecule `CCOc1cc(-c2nc(-c3cnc(N)c(C)c3)no2)ccc1-c1ccccc1C(F)(F)F` has a melting point of 163 to 165 °C. In the case of `COc1cc(C(=O)C(=O)O)cc(OC)c1OCCOc1ccc2ccccc2c1`, the melting point is reported as 114 to 116 °C. Molecule `COc1nc(C)cnc1NS(=O)(=O)c1ccccc1-c1ccc(CC(C)C)c(N)c1` has a melting point of 160 to 162 °C.
